Measured values taken from US20260152491A1, “PESTICIDALLY ACTIVE HETEROCYCLIC DERIVATIVES WITH SULFUR CONTAINING SUBSTITUENTS” (SYNGENTA CROP PROTECTION AG, priority 2022, published 2026).

Experiments:
Format in all cases: in vivo
Chilo suppressalis = test: Activity against Chilo suppressalis (striped rice stemborer), artificial diet in 24-well plates; details: 144 h, application rate 200 ppm, L2 larvae, 6 days after infestation, in comparison to untreated samples, read-out: control (at least one of mortality, anti-feedant effect, growth inhibition)
Procedure: Example B1: Activity Against Chilo suppressalis (Striped Rice Stemborer)
24-well microtiter plates with artificial diet were treated with aqueous test solutions prepared from 10'000 ppm DMSO stock solutions by pipetting. After drying, the plates were infested with L2 larvae (6-8 per well). The samples were assessed for mortality, anti-feeding effect, and growth inhibition in comparison to untreated samples 6 days after infestation. Control of Chilo suppressalis by a test sample is given when at least one of the categories mortality, anti-feedant effect, and growth inhibition is higher than the untreated sample.

Diabrotica balteata = test: Activity against Diabrotica balteata (corn root worm), maize sprouts sprayed; details: 96 h, application rate 200 ppm, L2 larvae, 4 days after infestation, in comparison to untreated samples, read-out: effect in at least one of the two categories (mortality or growth inhibition)
Procedure: Example B2: Activity Against Diabrotica Balteata (Corn Root Worm)
Maize sprouts placed onto an agar layer in 24-well microtiter plates were treated with aqueous test solutions prepared from 10'000 ppm DMSO stock solutions by spraying. After drying, the plates were infested with L2 larvae (6 to 10 per well). The samples were assessed for mortality and growth inhibition in comparison to untreated samples 4 days after infestation.

Euschistus heros = test: Activity against Euschistus heros (neotropical brown stink bug), soybean leaves sprayed; details: 120 h, application rate 200 ppm, N2 nymphs, 5 days after infestation, in comparison to untreated samples, read-out: effect in at least one of the two categories (mortality or growth inhibition)
Procedure: Example B3: Activity Against Euschistus heros (Neotropical Brown Stink Bug)
Soybean leaves on agar in 24-well microtiter plates were sprayed with aqueous test solutions prepared from 10'000 ppm DMSO stock solutions. After drying the leaves were infested with N2 nymphs. The samples were assessed for mortality and growth inhibition in comparison to untreated samples 5 days after infestation.

Myzus persicae [1] = test: Activity against Myzus persicae (green peach aphid), feeding/contact activity, sunflower leaf discs; details: foliar, 144 h, application rate 200 ppm, aphid population of mixed ages, 6 days after infestation
Procedure: Example B4: Activity Against Myzus persicae (Green Peach Aphid) Feeding/Contact Activity
Sunflower leaf discs were placed onto agar in a 24-well microtiter plate and sprayed with aqueous test solutions prepared from 10'000 ppm DMSO stock solutions. After drying, the leaf discs were infested with an aphid population of mixed ages. The samples were assessed for mortality 6 days after infestation.

Myzus persicae [2] = test: Activity against Myzus persicae (green peach aphid), systemic activity, pea seedling roots in test solution; details: 144 h, test rate 24 ppm, aphid population of mixed ages, 6 days after placing seedlings into test solutions
Procedure: Example B5: Activity Against Myzus persicae (Green Peach Aphid) Systemic Activity
Roots of pea seedlings infested with an aphid population of mixed ages were placed directly into aqueous test solutions prepared from 10'000 DMSO stock solutions. The samples were assessed for mortality 6 days after placing seedlings into test solutions.

Plutella xylostella = test: Activity against Plutella xylostella (diamond back moth), artificial diet in 24-well plates; details: 192 h, application rate 200 ppm, eggs, 8 days after infestation, in comparison to untreated samples, read-out: effect in at least one of the two categories (mortality or growth inhibition)
Procedure: Example B6: Activity Against Plutella xylostella (Diamond Back Moth)
24-well microtiter plates with artificial diet were treated with aqueous test solutions prepared from 10'000 ppm DMSO stock solutions by pipetting. After drying, Plutella eggs were pipetted through a plastic stencil onto a gel blotting paper and the plate was closed with it. The samples were assessed for mortality and growth inhibition in comparison to untreated samples 8 days after infestation.

Spodoptera littoralis = test: Activity against Spodoptera littoralis (Egyptian cotton leaf worm), cotton leaf discs sprayed; details: foliar, 72 h, application rate 200 ppm, L1 larvae, 3 days after infestation, in comparison to untreated samples, read-out: control (at least one of mortality, anti-feedant effect, growth inhibition)
Procedure: Example B7: Activity Against Spodoptera littoralis (Egyptian Cotton Leaf Worm)
Cotton leaf discs were placed onto agar in 24-well microtiter plates and sprayed with aqueous test solutions prepared from 10'000 ppm DMSO stock solutions. After drying the leaf discs were infested with five L1 larvae. The samples were assessed for mortality, anti-feeding effect, and growth inhibition in comparison to untreated samples 3 days after infestation. Control of Spodoptera littoralis by a test sample is given when at least one of the categories mortality, anti-feedant effect, and growth inhibition is higher than the untreated sample.

CCS(=O)(=O)c1cc(C2(C#N)CC2)cnc1-c1coc2cc(Cl)ccc2c1=O [P.1, 1-[6-(7-chloro-4-oxo-chromen-3-yl)-5-ethylsulfonyl-3-pyridyl]-cyclopropanecarbonitrile]
≥ 80%: percent control (mortality, anti-feedant effect or growth inhibition) at 200 ppm (Chilo suppressalis) | percent effect (mortality or growth inhibition) at 200 ppm (Diabrotica balteata) | percent effect (mortality or growth inhibition) at 200 ppm (Euschistus heros) | mortality at 200 ppm (Myzus persicae [1]) | mortality at 24 ppm (Myzus persicae [2]) | percent effect (mortality or growth inhibition) at 200 ppm (Plutella xylostella) | percent control (mortality, anti-feedant effect or growth inhibition) at 200 ppm (Spodoptera littoralis)

CCS(=O)(=O)c1cc(C2(C#N)CC2)cnc1-c1coc2cc(I)ccc2c1=O [P.2, 1-[5-ethylsulfonyl-6-(7-iodo-4-oxo-chromen-3-yl)-3-pyridyl]cyclopropanecarbonitrile]
≥ 80%: percent control (mortality, anti-feedant effect or growth inhibition) at 200 ppm (Chilo suppressalis) | percent effect (mortality or growth inhibition) at 200 ppm (Diabrotica balteata) | percent effect (mortality or growth inhibition) at 200 ppm (Euschistus heros) | mortality at 200 ppm (Myzus persicae [1]) | percent effect (mortality or growth inhibition) at 200 ppm (Plutella xylostella) | percent control (mortality, anti-feedant effect or growth inhibition) at 200 ppm (Spodoptera littoralis)

CCS(=O)(=O)c1cc(C2(C#N)CC2)cnc1-c1coc2cc(Br)ccc2c1=O [P.3, 1-[6-(7-bromo-4-oxo-chromen-3-yl)-5-ethylsulfonyl-3-pyridyl]-cyclopropanecarbonitrile]
≥ 80%: percent control (mortality, anti-feedant effect or growth inhibition) at 200 ppm (Chilo suppressalis) | percent effect (mortality or growth inhibition) at 200 ppm (Diabrotica balteata) | percent effect (mortality or growth inhibition) at 200 ppm (Euschistus heros) | percent effect (mortality or growth inhibition) at 200 ppm (Plutella xylostella) | percent control (mortality, anti-feedant effect or growth inhibition) at 200 ppm (Spodoptera littoralis)

CCS(=O)(=O)c1cc(C2(C#N)CC2)cnc1-c1coc2cc(F)ccc2c1=O [P.4, 1-[5-ethylsulfonyl-6-(7-fluoro-4-oxo-chromen-3-yl)-3-pyridyl]cyclopropane-carbonitrile]
≥ 80%: percent control (mortality, anti-feedant effect or growth inhibition) at 200 ppm (Chilo suppressalis) | percent effect (mortality or growth inhibition) at 200 ppm (Diabrotica balteata) | percent effect (mortality or growth inhibition) at 200 ppm (Euschistus heros) | mortality at 24 ppm (Myzus persicae [2]) | percent effect (mortality or growth inhibition) at 200 ppm (Plutella xylostella) | percent control (mortality, anti-feedant effect or growth inhibition) at 200 ppm (Spodoptera littoralis)

CCS(=O)(=O)c1cc(C2(C#N)CC2)cnc1-c1coc2cc(C3CC3)ccc2c1=O [P.5, 1-[6-(7-cyclopropyl-4-oxo-chromen-3-yl)-5-ethylsulfonyl-3-pyridyl]-cyclopropane-carbonitrile]
≥ 80%: percent control (mortality, anti-feedant effect or growth inhibition) at 200 ppm (Chilo suppressalis) | percent effect (mortality or growth inhibition) at 200 ppm (Diabrotica balteata) | percent effect (mortality or growth inhibition) at 200 ppm (Euschistus heros) | percent effect (mortality or growth inhibition) at 200 ppm (Plutella xylostella) | percent control (mortality, anti-feedant effect or growth inhibition) at 200 ppm (Spodoptera littoralis)

CCS(=O)(=O)c1cc(C2(C#N)CC2)cnc1-c1coc2cc(-c3ccc(F)cc3)ccc2c1=O [P.6, 1-[5-ethylsulfonyl-6-[7-(4-fluorophenyl)-4-oxo-chromen-3-yl]-3-pyridyl]cyclopropane-carbonitrile]
≥ 80%: percent effect (mortality or growth inhibition) at 200 ppm (Diabrotica balteata) | percent effect (mortality or growth inhibition) at 200 ppm (Plutella xylostella) | percent control (mortality, anti-feedant effect or growth inhibition) at 200 ppm (Spodoptera littoralis)

CCS(=O)(=O)c1cc(C2(C#N)CC2)cnc1-c1coc2cc(-c3cc(F)cc(F)c3)ccc2c1=O [P.7, 1-[6-[7-(3,5-difluorophenyl)-4-oxo-chromen-3-yl]-5-ethylsulfonyl-3-pyridyl]-cyclopropanecarbonitrile]
≥ 80%: percent control (mortality, anti-feedant effect or growth inhibition) at 200 ppm (Chilo suppressalis) | percent effect (mortality or growth inhibition) at 200 ppm (Diabrotica balteata) | percent effect (mortality or growth inhibition) at 200 ppm (Euschistus heros) | percent effect (mortality or growth inhibition) at 200 ppm (Plutella xylostella) | percent control (mortality, anti-feedant effect or growth inhibition) at 200 ppm (Spodoptera littoralis)
